Series [1] concerns the target recombinant human FAAH enzyme (Homo sapiens (Human), UniProt O00519). Description: FAAH inhibition assay (Cayman Chemicals kit, AMC-arachidonoyl amide hydrolysis, fluorescence). The class given is biochemical. The procedure: The ability of the compounds according to some embodiments of the present invention to inhibit FAAH was determined according to the methods disclosed a commercially available kit from Cayman Chemicals (Cayman Cat. No. 10005196). The kit utilizes recombinant human FAAH enzyme which hydrolyzes AMC-arachidonoyl amide resulting in the release of the fluorescent product, 7-amino-4-methylcoumarin (AMC). The fluorophore was detected via fluorescence, using an excitation wavelength of 340-360 nm and an emission wavelength of 450-465 nm. The assay was followed as described in the kit manual, which can be found on the webpage of Cayman Chemicals.

Series [2] deals with human CB2 receptor (Homo sapiens (Human), UniProt P34972). Description: CB2 receptor binding assay, displacement of 3H CP-55,940 from membrane preparation. To be noted: inhibition of 3H CP-55,940 binding (1 nM), human CB2 membranes. The procedure: (§1) The ability of the compounds according to some embodiments of the present invention to inhibit a radiolabeled cannabinoid ligand, CP-55,940, [Side chain-2,3,4(N)-3H(N)]-(Perkin-Elmer Cat. # NET1051) to either the human CB1 receptor or CB2 receptor was determined according to the manufacturer's instructions in the commercially available membrane preparations from Perkin Elmer (Cat Nos. RBHCB1M400UA and RBXCB2M400UA). Briefly, pre-treatment of the glass fiber membrane of a Matrix 96 well GFC filtration microtiter plate was done in order to help reduce non-specific binding of the radioligand to the GFC membrane. This was done by adding 150 μl of 0.5% polyethylimine (PEI) to each well and letting this remain in the plate for at least 4 hours before using it to terminate the binding reaction. The actual binding reaction was performed in a polypropylene (PP) round bottom 96-well microtiter plate. Briefly, 55 μl of assay buffer (50 mM TRIS pH7.4, 2.5 mM EGTA, 5 mM MgCl2, 120 mM NaCl, 0.1% Fatty acid free BSA) was added to each well, followed by 20 μl of a 0.4 mg/ml CB1 or CB2 membrane suspension (8 μg membrane per well). To initiate the reaction, 20 μl of 5 nM ^3H CP-55,940 (1 nM final concentration) was added to each well. Nonspecific binding was defined in the presence of 20 μM unlabeled WIN 55212 (Sigma cat. W-102). ACEA was routinely used as a positive control for both assays. The plate was shaken on an orbital plate shaker and the binding reaction proceeded until equilibrium was reached after 3 hours at room temperature. Using a Multiscreen vacuum manifold, the PEI was filtered through the GFC filter plate. The binding reaction in the PP plate was mixed by aspirating the reaction contents of each well and dispensing back into the plate. This was repeated 4 times and then 75 μl of the reaction mixture was transferred to the GFC plate. This procedure could be done row by row with the use of a multichannel pipette, or all at once if using automation. Once the entire content of the PP plate was transferred to the GFC plate, the binding reactions were terminated by filtering thru the GFC plate. The filter plate was then washed by adding 100 μl ice-cold wash buffer 50 mM TRIS pH 7.4, 2.5 mM EGTA, 5 mM MgCl2, 120 mM NaCl, 2% Fatty acid free BSA) to each well and filtering through. This was repeated 8 times, after which the filter mat was allowed to dry. Once the filter mat was dry, 50 μl of Microscint scintillation cocktail was added to each well, allowed to sit for 15-20 min, and the plate read on a Microbeta2 scintillation counter.
Sequence of human CB2 receptor (P34972 whole entry): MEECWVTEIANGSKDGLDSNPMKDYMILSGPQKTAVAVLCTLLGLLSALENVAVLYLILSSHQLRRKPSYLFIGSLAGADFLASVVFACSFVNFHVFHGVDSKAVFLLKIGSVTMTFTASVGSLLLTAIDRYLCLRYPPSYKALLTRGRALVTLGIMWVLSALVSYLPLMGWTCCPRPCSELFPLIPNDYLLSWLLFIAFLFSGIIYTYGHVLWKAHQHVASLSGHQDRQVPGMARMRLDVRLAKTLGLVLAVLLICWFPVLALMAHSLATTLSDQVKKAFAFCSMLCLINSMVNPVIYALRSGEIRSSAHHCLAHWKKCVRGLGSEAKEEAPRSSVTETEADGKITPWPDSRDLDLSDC
(§2) The lower the IC50 value, the higher the binding.
In general terms: In a radioligand displacement assay an active substance lowers the binding of a labelled ligand.

The target of series [3] is human CB1 receptor (Homo sapiens (Human), UniProt P21554). Description: CB1 receptor binding assay, displacement of 3H CP-55,940 from membrane preparation. To be noted: inhibition of 3H CP-55,940 binding (1 nM), human CB1 membranes. Here is the method: as §1, §2
Sequence of human CB1 receptor (P21554 whole entry): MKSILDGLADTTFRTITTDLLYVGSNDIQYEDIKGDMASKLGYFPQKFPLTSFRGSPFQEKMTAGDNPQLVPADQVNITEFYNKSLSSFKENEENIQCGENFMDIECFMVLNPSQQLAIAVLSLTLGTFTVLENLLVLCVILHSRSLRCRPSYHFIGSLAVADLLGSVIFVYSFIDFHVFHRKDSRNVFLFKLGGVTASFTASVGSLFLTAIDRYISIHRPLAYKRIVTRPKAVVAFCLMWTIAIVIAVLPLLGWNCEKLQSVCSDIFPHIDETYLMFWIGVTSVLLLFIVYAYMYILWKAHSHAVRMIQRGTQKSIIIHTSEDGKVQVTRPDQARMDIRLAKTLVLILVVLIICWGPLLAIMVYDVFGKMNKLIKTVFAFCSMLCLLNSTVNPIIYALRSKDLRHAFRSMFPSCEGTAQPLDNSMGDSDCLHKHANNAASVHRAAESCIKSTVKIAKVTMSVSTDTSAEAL
Series [4] in a line: Effect on solubility of 12 HSA (visual observation). In kind it is physicochemical.
The subject of series [5] is serotonin-induced scratches (itch). The following applies: mice; cited from earlier work.
Where [6] appears, read: 48.28% Tween 20, 34.48% 12-HSA, 17.24% compound.
Where [7] appears, read: 41.18% Tween 60, 29.41% 12-HSA, 29.41% compound.
[8] abbreviates: 41.67% Tween 60, 41.67% 12-HSA, 16.67% compound.
Setting [9] is: 41.18% Tween 20, 29.41% 12-HSA, 29.41% compound.

Sequence of recombinant human FAAH enzyme (O00519 whole entry): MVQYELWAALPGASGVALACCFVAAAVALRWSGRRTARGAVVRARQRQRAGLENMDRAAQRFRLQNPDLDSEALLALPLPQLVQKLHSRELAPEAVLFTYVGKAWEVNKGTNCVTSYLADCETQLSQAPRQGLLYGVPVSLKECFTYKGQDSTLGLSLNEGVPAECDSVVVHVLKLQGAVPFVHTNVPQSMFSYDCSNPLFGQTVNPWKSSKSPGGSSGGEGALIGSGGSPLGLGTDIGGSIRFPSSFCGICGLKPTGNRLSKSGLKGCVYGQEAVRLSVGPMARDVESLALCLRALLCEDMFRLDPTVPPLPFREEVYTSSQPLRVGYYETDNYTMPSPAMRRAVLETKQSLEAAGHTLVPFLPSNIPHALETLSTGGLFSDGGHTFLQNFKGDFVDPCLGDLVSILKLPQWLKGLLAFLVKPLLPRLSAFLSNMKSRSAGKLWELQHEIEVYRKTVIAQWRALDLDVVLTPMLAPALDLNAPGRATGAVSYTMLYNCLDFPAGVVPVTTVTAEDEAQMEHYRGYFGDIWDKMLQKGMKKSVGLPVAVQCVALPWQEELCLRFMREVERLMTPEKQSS

On to `CCCCC/C=C\C=C\CCCCCCCCC(=O)NC(C)C(=O)O` (centres unmarked) [Compound 2], for which the IC50 (in general, the point on the concentration scale where inhibition reaches its midpoint) in series [1] worked out at 2.6 µM. Also, the “CB2 IC50” value in series [2] is on record as “No binding”. The “CB1 IC50” value in series [3] is reported as “No binding”.
As for `CCCCCC/C=C/C=C/CCCCCCCC(=O)NCCC(=O)O` [Compound 3], the Observation entry in series [4] (setting [6]) was “translucent”. The half-inhibitory concentration (IC50) in series [1] was determined as 2.8 µM; in series [2], 26 µM; in series [3] it was 22 µM.
In the case of `CCCCC/C=C\C=C\CCCCCCCCC(=O)NCCC(=O)O` [Compound 4], the IC50 was 2.8 µM in series [1], 26 µM in series [2] and 22 µM in series [3].
Turning to `CCCCCC/C=C/C=C\CCCCCCCC(=O)NCC(=O)O` [Compound 5], the Observation result in series [4] (33.33% Tween 20, 41.67% 12-HSA, […] compound) is on record as “translucent”; in series [4] (40% Tween 20, 30% 12-HSA, 10% compound), “translucent”; in series [4] (40.00% Tween 20, 40% 12-HSA, 20% compound), “translucent”; in series [4] (setting [6]), “translucent”; in series [4] (48.28% Tween 60, 34.48% 12-HSA, 17.24% compound), “translucent”. Also, the 50% inhibitory concentration (IC50) in series [1] is 3.5 µM. Also, the “CB2 IC50” value in series [2] is reported as “No binding”. In addition, the “CB1 IC50” value in series [3] is reported as “No binding”.
For the compound `CCCCC/C=C\C=C\CCCCCCCCC(=O)NCC(=O)O` [Compound 6], the IC50 in series [1] worked out at 3.5 µM. For the same compound, the “CB2 IC50” value in series [2] is “No binding”. The “CB1 IC50” value in series [3] is listed as “No binding”.
For the compound `CCCCCC/C=C/C=C\CCCCCCCC(=O)NC(Cc1ccccc1)C(=O)O` (centres unmarked) [Compound 7], in series [1], the IC50 is 11 µM. The “CB2 IC50” value in series [2] is “No binding”. Further, the “CB1 IC50” value in series [3] is reported as “No binding”.
In the case of `CCCCC/C=C\C=C\CCCCCCCCC(=O)NC(Cc1ccccc1)C(=O)O` (centres unmarked) [Compound 8], the IC50 in series [1] was 11 µM. In series [2], the “CB2 IC50” value is “No binding”. Besides, the “CB1 IC50” value in series [3] was “No binding”.
With `CCCCC/C=C\C=C\CCCCCCCCC(=O)NCC(Cc1c[nH]cn1)C(=O)O` (centres unmarked) [Compound 9], the IC50 came to 13 µM in series [1] and 38 µM in series [2].
For `CCCCCC/C=C/C=C/CCCCCCCC(=O)NC(CC(=O)O)Cc1c[nH]cn1` (centres unmarked) [Compound 10], in that order: 13 µM and 38 µM.
Take `CCCCC/C=C\C=C\CCCCCCCCC(=O)NC(CCC(=O)O)C(=O)O` (centres unmarked) [Compound 11]: the Observation result is reported as “translucent/clear” in series [4] (setting [7]) and “translucent” in series [4] (setting [8]). Besides, in series [1], the “FAAH IC50” value is given as “No binding”. For the same compound, the “CB2 IC50” value in series [2] is given as “No binding”. Further, the “CB1 IC50” value in series [3] is on record as “No binding”.
As for `CCCCCCC(O)C/C=C\CCCCCCCC(=O)NC(C)C(=O)O` (centres unmarked) [Compound 12], the Observation result in series [4] (setting [9]) and in series [4] (setting [7]) was “translucent” each time. Further, the IC50 in series [1] is 42 µM. Further, in series [2], the “CB2 IC50” value is reported as “no binding activities”. The “CB1 IC50” value in series [3] is recorded as “no binding activities”.
Take `CCCCCCC(O)C/C=C\CCCCCCCC(=O)NC(C(=O)O)C(C)CC` (centres unmarked) [Compound 13]: in series [4] (setting [7]), the Observation entry is “translucent”.
`CCCCCCC(O)C/C=C\CCCCCCCC(=O)NCC(=O)O` (centres unmarked) [Compound 14]: the Observation result in series [4] (setting [9]) and in series [4] (setting [7]) was “translucent” each time. For the same compound, the IC50 in series [1] worked out at 26 µM. For the same compound, the “CB2 IC50” value in series [2] is on record as “no binding activities”. For the same compound, in series [3], the “CB1 IC50” value was “no binding activities”.
As for `CCCCCCC(O)C/C=C\CCCCCCCC(=O)NC(CCC(=O)O)C(=O)O` (centres unmarked) [Compound 15], the Observation result in series [4] (setting [7]) and in series [4] (setting [8]) was “translucent” throughout.
`CCCCCCC(O)CCCCCCCCCCC(=O)NC(CC(=O)O)C(=O)O` (centres unmarked) [Compound 16]: the Observation result in series [4] (45.16% Tween 60, 38.71% 12-HSA, 16.13% compound) is “translucent”.
Turning to `CCCCCCC(O)CCCCCCCCCCC(=O)NC(C)C(=O)O` (centres unmarked) [Compound 17], the IC50 in series [1] turned out to be 40 µM. Besides, the “CB2 IC50” value in series [2] was “no binding activities”. Also, the “CB1 IC50” value in series [3] was “no binding activities”.
As to `CCCCCCC(O)CCCCCCCCCCC(=O)NCC(=O)O` (centres unmarked) [Compound 18], the Observation result in series [4] (48.39% Tween 60, 48.39% 12-HSA, 3.23% compound) is listed as “translucent”. The IC50 in series [1] amounted to 46 µM. Further, the “CB2 IC50” value in series [2] was “no binding activities”. The “CB1 IC50” value in series [3] is “no binding activities”.
`CCCCCCC(O)CCCCCCCCCCC(=O)NC(CCC(=O)O)C(=O)O` (centres unmarked) [Compound 19]: in series [4] (50.00% Tween 60, 35.71% 12-HSA, 14.29% compound), the Observation entry is “translucent”.
With `NC(=O)c1cccc(-c2cccc(OC(=O)NC3CCCCC3)c2)c1` [URB597], the “Serotonin-induced scratches (itch)” value in series [5] was “attenuate”.
In the case of “conjugated linoleyl glycinate acid [Compound 1]”, the IC50 in series [1] worked out at 2.6 µM. The “CB2 IC50” value in series [2] is recorded as “No binding”. In addition, in series [3], the “CB1 IC50” value is given as “No binding”.
